From patent US20240158438A1, “POLYPEPTIDE COMPOUND AND APPLICATION THEREOF” (CHENGDU SINTANOVO BIOTECHNOLOGY CO., LTD., priority 2021, published 2024) come the findings set out here.

Broadly, the IC50 is the concentration at which inhibition is half-maximal.

For one series, the target named is GHSR-1a (Homo sapiens (Human), UniProt Q92847). The series can be described thus: Agonistic activity for GHSR-1a, FLIPR calcium assay. In kind it is cell-based. The following applies: agonist activity assay, Flp In-CHO-GHSR Stable Pool cells, FLIPR calcium 6 kit; read-out: The activity (IC50) of polypeptide compounds for GHSR-1a.
For a further series, the target named is CYP 2C9 (Homo sapiens (Human), UniProt P11712). In kind it is in vitro ADME. The following applies: microsomes, 10 min. How it is done:
(§1) Human liver microsomes containing cytochrome P450 (0.253 mg/mL protein) were incubated with test compounds (0.05-50 μM), CYPs substrates (10 μM […], 5 μM diclofenac, 30 μM mephenytoin, 5 μM dextromethorphan hydrobromide and 2 μM midazolam) and 1.0 mM NADP at 37° C. for 10 min. Naphthoflavone, sulfaphenazole, N-3-benzylnirvanol, quinidine and ketoconazole were used as reference inhibitors.

The target in the next series is CYP 3A4 (Homo sapiens (Human), UniProt P08684). In kind it is in vitro ADME. The following applies: microsomes, 10 min. The procedure: as §1
The target in a further series is CYP 2C19 (Homo sapiens (Human), UniProt P33261). Type of series: in vitro ADME. The following applies: microsomes, 10 min. The procedure: as §1
The target in another series is CYP 2D6 (Homo sapiens (Human), UniProt P10635). In kind it is in vitro ADME. The following applies: microsomes, 10 min. The procedure: as §1
Another series addresses CYP1A2 (Homo sapiens (Human), UniProt P05177). The series can be described thus: in vitro. In kind it is in vitro ADME. The following applies: microsomes; for IC50: 10 min. How it is done: as §1

Starred links: 1 amine or outer side, 2 acyl side, 3 side chain; linkers in the order of their positions; H or OH if unused. Non-standard residues stand in square brackets, D forms with d. Residues, ends and D or L forms follow the SMILES beside them. *: point of attachment. Azetidine3carboxylic = O=C(C1CN([*:1])C1)[*:2]; Pyrrolidine3carbonyl(3S) = O=C([C@H]1CCNC1)*; dBta = N[C@H](Cc1csc2ccccc12)C(=O)O; dTle = CC(C)(C)[C@@H](N)C(=O)O; Ac4c(3-oxa) = NC1(C(=O)O)COC1; Tle = CC(C)(C)[C@H](N)C(=O)O; X1 = N[C@H]1CCC[C@H]1C(=O)*; dAbu = CC[C@@H](N)C(=O)O; Abu = CC[C@H](N)C(=O)O; X3 = NCC1(C(=O)*)CCC1; βAla = NCCC(=O)O

Sequence of CYP 2C9 (P11712 whole entry): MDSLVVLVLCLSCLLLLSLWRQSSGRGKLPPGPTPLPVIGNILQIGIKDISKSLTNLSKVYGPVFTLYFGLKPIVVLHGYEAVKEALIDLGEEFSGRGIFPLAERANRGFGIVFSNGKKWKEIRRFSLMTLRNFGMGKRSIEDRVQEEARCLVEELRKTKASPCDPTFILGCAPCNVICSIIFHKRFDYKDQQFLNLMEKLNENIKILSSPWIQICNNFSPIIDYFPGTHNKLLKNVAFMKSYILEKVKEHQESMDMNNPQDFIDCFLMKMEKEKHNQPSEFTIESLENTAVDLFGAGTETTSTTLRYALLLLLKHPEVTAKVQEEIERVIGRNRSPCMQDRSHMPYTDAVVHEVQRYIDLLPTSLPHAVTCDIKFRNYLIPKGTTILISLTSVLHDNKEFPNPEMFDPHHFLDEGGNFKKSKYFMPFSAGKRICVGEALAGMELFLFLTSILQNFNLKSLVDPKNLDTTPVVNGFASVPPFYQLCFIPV
Sequence of CYP 2C19 (P33261 whole entry): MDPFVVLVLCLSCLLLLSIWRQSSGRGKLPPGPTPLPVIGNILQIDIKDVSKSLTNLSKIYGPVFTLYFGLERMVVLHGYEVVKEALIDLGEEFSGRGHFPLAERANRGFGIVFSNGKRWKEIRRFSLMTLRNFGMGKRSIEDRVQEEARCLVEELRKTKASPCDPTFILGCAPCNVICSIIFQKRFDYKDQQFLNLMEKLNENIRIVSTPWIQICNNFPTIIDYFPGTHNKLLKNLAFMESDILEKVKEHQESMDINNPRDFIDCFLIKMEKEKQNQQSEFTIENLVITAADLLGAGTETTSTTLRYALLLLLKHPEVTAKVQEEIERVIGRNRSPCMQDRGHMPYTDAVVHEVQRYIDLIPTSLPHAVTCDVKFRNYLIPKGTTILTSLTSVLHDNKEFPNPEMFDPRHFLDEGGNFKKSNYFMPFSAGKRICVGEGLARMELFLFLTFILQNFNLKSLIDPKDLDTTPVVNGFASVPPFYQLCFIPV
Sequence of CYP 2D6 (P10635 whole entry): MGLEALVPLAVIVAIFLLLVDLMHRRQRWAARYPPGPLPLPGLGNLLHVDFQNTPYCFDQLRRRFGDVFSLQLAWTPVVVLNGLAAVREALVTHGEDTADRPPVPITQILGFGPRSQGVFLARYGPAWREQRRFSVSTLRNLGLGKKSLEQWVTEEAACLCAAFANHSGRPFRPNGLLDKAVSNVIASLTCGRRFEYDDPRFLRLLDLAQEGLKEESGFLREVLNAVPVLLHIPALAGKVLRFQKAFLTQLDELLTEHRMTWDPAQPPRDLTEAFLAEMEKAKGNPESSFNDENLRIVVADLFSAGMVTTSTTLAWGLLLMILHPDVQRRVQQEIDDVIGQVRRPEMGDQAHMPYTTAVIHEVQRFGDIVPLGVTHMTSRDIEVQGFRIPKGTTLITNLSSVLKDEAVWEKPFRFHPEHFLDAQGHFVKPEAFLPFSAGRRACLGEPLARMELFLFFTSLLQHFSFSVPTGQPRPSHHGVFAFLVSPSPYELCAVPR
Sequence of GHSR-1a (Q92847 whole entry): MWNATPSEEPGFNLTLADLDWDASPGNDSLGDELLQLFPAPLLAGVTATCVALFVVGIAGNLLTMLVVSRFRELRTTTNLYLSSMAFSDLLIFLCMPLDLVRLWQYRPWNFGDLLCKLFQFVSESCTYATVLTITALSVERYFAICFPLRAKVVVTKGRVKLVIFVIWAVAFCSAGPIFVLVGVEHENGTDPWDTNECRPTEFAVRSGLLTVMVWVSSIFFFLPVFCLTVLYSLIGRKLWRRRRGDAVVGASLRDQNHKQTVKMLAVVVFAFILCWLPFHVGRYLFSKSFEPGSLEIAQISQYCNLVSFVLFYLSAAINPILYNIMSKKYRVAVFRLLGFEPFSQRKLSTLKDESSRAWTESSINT
Sequence of CYP1A2 (P05177 whole entry): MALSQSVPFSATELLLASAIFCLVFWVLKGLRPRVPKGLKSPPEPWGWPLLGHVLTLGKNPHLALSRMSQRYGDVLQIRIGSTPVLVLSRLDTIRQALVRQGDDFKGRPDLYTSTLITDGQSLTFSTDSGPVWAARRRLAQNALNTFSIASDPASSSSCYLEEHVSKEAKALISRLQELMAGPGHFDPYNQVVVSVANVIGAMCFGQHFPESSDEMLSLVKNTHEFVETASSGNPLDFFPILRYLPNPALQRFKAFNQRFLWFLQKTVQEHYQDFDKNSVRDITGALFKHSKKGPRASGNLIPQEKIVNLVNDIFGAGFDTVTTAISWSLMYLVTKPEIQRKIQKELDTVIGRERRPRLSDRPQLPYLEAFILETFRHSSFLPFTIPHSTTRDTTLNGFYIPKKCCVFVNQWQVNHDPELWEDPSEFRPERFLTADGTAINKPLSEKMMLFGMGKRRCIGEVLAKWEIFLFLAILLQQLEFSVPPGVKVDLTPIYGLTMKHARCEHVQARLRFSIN
Sequence of CYP 3A4 (P08684 whole entry): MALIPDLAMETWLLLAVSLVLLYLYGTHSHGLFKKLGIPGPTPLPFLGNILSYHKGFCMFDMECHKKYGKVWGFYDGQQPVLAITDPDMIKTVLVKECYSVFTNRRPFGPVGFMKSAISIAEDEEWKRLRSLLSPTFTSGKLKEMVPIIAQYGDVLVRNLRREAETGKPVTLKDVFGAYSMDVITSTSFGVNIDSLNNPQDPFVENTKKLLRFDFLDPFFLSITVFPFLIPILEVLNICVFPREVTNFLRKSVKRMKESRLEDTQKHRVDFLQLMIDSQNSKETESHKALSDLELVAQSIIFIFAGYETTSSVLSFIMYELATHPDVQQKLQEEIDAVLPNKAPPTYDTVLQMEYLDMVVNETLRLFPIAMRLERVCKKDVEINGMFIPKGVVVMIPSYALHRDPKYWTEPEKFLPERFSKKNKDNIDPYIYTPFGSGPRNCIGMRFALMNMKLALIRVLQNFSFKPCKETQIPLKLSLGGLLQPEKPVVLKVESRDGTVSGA

On to `CC[C@@H](N)C(=O)N[C@H](Cc1csc2ccccc12)C(=O)N[C@H](Cc1c[nH]c2ccccc12)C(=O)N[C@@H](Cc1ccccc1)C(=O)N[C@H](CCCCN)C(N)=O` [Compound 32] (H-[dAbu][dBta][dW]F[dK]-NH2), for which the IC50 on GHSR-1a was 0.0024 µM; against CYP 2C9 it was > 50 µM; on CYP 3A4, 2.55 µM; against CYP 2C19, > 50 µM; on CYP 2D6 it was 24.8 µM; at CYP1A2 it was > 50 µM.

In the case of `CC[C@H](N)C(=O)N[C@H](Cc1csc2ccccc12)C(=O)N[C@H](Cc1c[nH]c2ccccc12)C(=O)N[C@@H](Cc1ccccc1)C(=O)N[C@H](CCCCN)C(N)=O` [Compound 33] (H-[Abu][dBta][dW]F[dK]-NH2), the IC50 on GHSR-1a was 0.0031 µM; at CYP 2C9 it was > 50 µM; against CYP 3A4, > 50 µM; against CYP 2C19, > 50 µM; against CYP 2D6, > 50 µM; on CYP1A2 it was > 50 µM.

Turning to `NCCCC[C@@H](NC(=O)[C@H](Cc1ccccc1)NC(=O)[C@@H](Cc1c[nH]c2ccccc12)NC(=O)[C@@H](Cc1csc2ccccc12)NC(=O)[C@@H]1CCCN1)C(N)=O` [Compound 45] (H-P[dBta][dW]F[dK]-NH2), the IC50 was 0.0051 µM at GHSR-1a; > 50 µM at CYP 2C9; > 50 µM against CYP 3A4; > 50 µM at CYP 2C19; > 50 µM against CYP 2D6; > 50 µM against CYP1A2.

`NCCCC[C@@H](NC(=O)[C@H](Cc1ccccc1)NC(=O)[C@@H](Cc1c[nH]c2ccccc12)NC(=O)[C@@H](Cc1csc2ccccc12)NC(=O)CCN)C(N)=O` [Compound 46] (H-[βAla][dBta][dW]F[dK]-NH2): the IC50 on GHSR-1a is 0.0028 µM; on CYP 2C9, > 50 µM; against CYP 3A4, > 50 µM; against CYP 2C19 it was > 50 µM; at CYP 2D6 it was > 50 µM; against CYP1A2, > 50 µM.

Turning to `CC(C)(C)[C@@H](N)C(=O)N[C@H](Cc1csc2ccccc12)C(=O)N[C@H](Cc1c[nH]c2ccccc12)C(=O)N[C@@H](Cc1ccccc1)C(=O)N[C@H](CCCCN)C(N)=O` [Compound 47] (H-[dTle][dBta][dW]F[dK]-NH2), the IC50 on GHSR-1a is 0.0107 µM; against CYP 2C9 it was > 50 µM; against CYP 3A4, > 50 µM; at CYP 2C19 it was > 50 µM; against CYP 2D6, > 50 µM; on CYP1A2, > 50 µM.

For the compound `CC(C)(C)[C@H](N)C(=O)N[C@H](Cc1csc2ccccc12)C(=O)N[C@H](Cc1c[nH]c2ccccc12)C(=O)N[C@@H](Cc1ccccc1)C(=O)N[C@H](CCCCN)C(N)=O` [Compound 48] (H-[Tle][dBta][dW]F[dK]-NH2), the IC50 on GHSR-1a is 0.0121 µM; against CYP 2C9, > 50 µM; against CYP 3A4 it was > 50 µM; against CYP 2C19 it was > 50 µM; against CYP 2D6 it was > 50 µM; against CYP1A2, > 50 µM.

Consider `NCCCC[C@@H](NC(=O)[C@H](Cc1ccccc1)NC(=O)[C@@H](Cc1c[nH]c2ccccc12)NC(=O)[C@@H](Cc1csc2ccccc12)NC(=O)[C@@H]1CCC[C@@H]1N)C(N)=O` [Compound 51] (X1-[dBta][dW]F[dK]-NH2), for which the IC50 at GHSR-1a was 0.0032 µM; at CYP 2C9 it was > 50 µM; on CYP 3A4 it was > 50 µM; on CYP 2C19, > 50 µM; against CYP 2D6 it was > 50 µM; at CYP1A2, > 50 µM.

Turning to `NCCCC[C@@H](NC(=O)[C@H](Cc1ccccc1)NC(=O)[C@@H](Cc1c[nH]c2ccccc12)NC(=O)[C@@H](Cc1csc2ccccc12)NC(=O)C1(CN)CCC1)C(N)=O` [Compound 52] (X3-[dBta][dW]F[dK]-NH2), the 50% inhibitory concentration (IC50) at GHSR-1a was 0.0038 µM; on CYP 2C9 it was > 50 µM; at CYP 3A4, > 50 µM; against CYP 2C19 it was > 50 µM; against CYP 2D6 it was > 50 µM; at CYP1A2, > 50 µM.

Consider `NCCCC[C@@H](NC(=O)[C@H](Cc1ccccc1)NC(=O)[C@@H](Cc1c[nH]c2ccccc12)NC(=O)[C@@H](Cc1csc2ccccc12)NC(=O)C1CNC1)C(N)=O` [Compound 53] (Azetidine3carboxylic-[dBta][dW]F[dK]-NH2), for which the IC50 on GHSR-1a was 0.0112 µM; against CYP 2C9 it was > 50 µM; against CYP 3A4, > 50 µM; at CYP 2C19 it was > 50 µM; against CYP 2D6 it was > 50 µM; on CYP1A2, > 50 µM.

Take `NCCCC[C@@H](NC(=O)[C@H](Cc1ccccc1)NC(=O)[C@@H](Cc1c[nH]c2ccccc12)NC(=O)[C@@H](Cc1csc2ccccc12)NC(=O)C1(N)COC1)C(N)=O` [Compound 54] (H-[Ac4c(3-oxa)][dBta][dW]F[dK]-NH2): the IC50 was 0.0139 µM on GHSR-1a; > 50 µM against CYP 2C9; > 50 µM on CYP 3A4; > 50 µM at CYP 2C19; > 50 µM against CYP 2D6; > 50 µM on CYP1A2.

In the case of `NCCCC[C@@H](NC(=O)[C@H](Cc1ccccc1)NC(=O)[C@@H](Cc1c[nH]c2ccccc12)NC(=O)[C@@H](Cc1csc2ccccc12)NC(=O)[C@H]1CCNC1)C(N)=O` [Compound 56] ({Pyrrolidine3carbonyl(3S)}-[dBta][dW]F[dK]-NH2), the IC50 on GHSR-1a is 0.0055 µM; against CYP 2C9, > 50 µM; at CYP 3A4, > 50 µM; against CYP 2C19, > 50 µM; on CYP 2D6 it was > 50 µM; at CYP1A2, > 50 µM.

For `NC(=O)[C@H](Cc1ccccc1)NC(=O)[C@@H](Cc1c[nH]c2ccccc12)NC(=O)[C@@H](Cc1csc2ccccc12)NC(=O)[C@@H]1CCC[C@@H]1N` [Compound 71], the half-inhibitory concentration (IC50) at GHSR-1a is 0.0033 µM; at CYP 2C9 it was > 50 µM; on CYP 3A4, > 50 µM; against CYP 2C19, > 50 µM; at CYP 2D6, > 50 µM. In addition, the IC50 at 10 min at CYP1A2 is > 50 µM.

`NCC1(C(=O)N[C@H](Cc2csc3ccccc23)C(=O)N[C@H](Cc2c[nH]c3ccccc23)C(=O)N[C@@H](Cc2ccccc2)C(N)=O)CCC1` [Compound 72]: the IC50 on GHSR-1a is 0.004 µM; at CYP 2C9, > 50 µM; against CYP 3A4, > 50 µM; against CYP 2C19, > 50 µM; against CYP 2D6, > 50 µM. In addition, on CYP1A2, the IC50 at 10 min is > 50 µM.

For `NC(=O)[C@H](Cc1ccccc1)NC(=O)[C@@H](Cc1c[nH]c2ccccc12)NC(=O)[C@@H](Cc1csc2ccccc12)NC(=O)[C@H]1CCNC1` [Compound 76], the IC50 at GHSR-1a is 0.0039 µM; on CYP 2C9 it was > 50 µM; at CYP 3A4, > 50 µM; against CYP 2C19, > 50 µM; at CYP 2D6 it was > 50 µM. The IC50 at 10 min at CYP1A2 was > 50 µM.

`NC(=O)[C@H](Cc1ccccc1)NC(=O)[C@@H](Cc1c[nH]c2ccccc12)NC(=O)[C@@H](Cc1csc2ccccc12)NC(=O)[C@H]1CNCCO1` [Compound 77]: the IC50 on GHSR-1a is 0.0136 µM; at CYP 2C9, > 50 µM; on CYP 3A4 it was > 50 µM; against CYP 2C19, > 50 µM; against CYP 2D6 it was > 50 µM. Besides, the IC50 at 10 min on CYP1A2 was > 50 µM.

`NC(=O)[C@H](Cc1ccccc1)NC(=O)[C@@H](Cc1c[nH]c2ccccc12)NC(=O)[C@@H](Cc1csc2ccccc12)NC(=O)[C@@]12CNC[C@@H]1C2` [Compound 80]: the IC50 is 0.0351 µM at GHSR-1a; > 50 µM on CYP 2C9; > 50 µM against CYP 3A4; > 50 µM at CYP 2C19; > 50 µM against CYP 2D6. For the same compound, the IC50 at 10 min at CYP1A2 is > 50 µM.
